Experimental data as given in ChEMBL document CHEMBL1201861, “Genomics of Drug Sensitity in Cancer screening data, Wellcome Trust Sanger Institute”.

Legend:
Test in all cases: cells
Settings in all cases: Homo sapiens
CW-2 = type: functional, cell-based;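 also: growth inhibition of CW-2 cells, read out by a cell viability assay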
Description: SANGER: Inhibition of human CW-2 cell growth in a cell viability assay.

D-502MG = type: functional, cell-based
Description: SANGER: Inhibition of human D-502MG cell growth in a cell viability assay.

DJM-1 = type: functional, cell-based;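 also: growth inhibition of human DJM-1 cells, read out by a cell viability assay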
Description: SANGER: Inhibition of human DJM-1 cell growth in a cell viability assay.

DOHH-2 = type: functional, cell-based;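 also: growth inhibition of human DOHH-2 cells, read out with a cell viability assay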
Description: SANGER: Inhibition of human DOHH-2 cell growth in a cell viability assay.

EKVX = type: functional, cell-based;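 also: growth inhibition of human EKVX cells, read out with a cell viability assay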
Description: SANGER: Inhibition of human EKVX cell growth in a cell viability assay.

ES5 = type: functional, cell-based;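 also: growth inhibition of human ES5 cells, read out by a cell viability assay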
Description: SANGER: Inhibition of human ES5 cell growth in a cell viability assay.

EW-1 = type: functional, cell-based;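 also: growth inhibition of the human EW-1 cell line, read out by a cell viability assay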
Description: SANGER: Inhibition of human EW-1 cell growth in a cell viability assay.

GCIY = type: functional, cell-based;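 also: growth inhibition of the human GCIY cell line, read out by a cell viability assay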
Description: SANGER: Inhibition of human GCIY cell growth in a cell viability assay.

HC-1 = type: functional, cell-based;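 also: growth inhibition of HC-1 cells measured by a cell viability assay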
Description: SANGER: Inhibition of human HC-1 cell growth in a cell viability assay.

HCC2218 = type: functional, cell-based;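 also: cell viability assay read-out, with IC50 given as the concentration that inhibits growth of the cell line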
Description: SANGER: Inhibition of human HCC2218 cell growth in a cell viability assay.

HCE-T = type: functional, cell-based;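 also: cell viability assay read-out, reporting inhibition of HCE-T cell growth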
Description: SANGER: Inhibition of human HCE-T cell growth in a cell viability assay.

HH = type: functional, cell-based
Description: SANGER: Inhibition of human HH cell growth in a cell viability assay.

HOP-62 = type: functional, cell-based;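 also: cell growth inhibition determined with a viability assay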
Description: SANGER: Inhibition of human HOP-62 cell growth in a cell viability assay.

HuTu80 = type: functional, cell-based, HUTU-80;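 also: growth inhibition of HuTu80 human cells, determined with a cell viability readout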
Description: SANGER: Inhibition of human HUTU-80 cell growth in a cell viability assay.

IA-LM = type: functional, cell-based;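 also: cell viability assay measuring growth inhibition of human IA-LM cells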
Description: SANGER: Inhibition of human IA-LM cell growth in a cell viability assay.

KARPAS-299 = type: functional, cell-based
Description: SANGER: Inhibition of human KARPAS-299 cell growth in a cell viability assay.

KARPAS-45 = type: functional, cell-based;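 also: inhibition of cell line growth, read out through a viability assay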
Description: SANGER: Inhibition of human KARPAS-45 cell growth in a cell viability assay.

KINGS-1 = type: functional, cell-based;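 also: cell viability assay measuring suppression of KINGS-1 cell growth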
Description: SANGER: Inhibition of human KINGS-1 cell growth in a cell viability assay.

KLE = type: functional, cell-based;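 also: growth inhibition of human KLE cells, read out with a cell viability assay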
Description: SANGER: Inhibition of human KLE cell growth in a cell viability assay.

KMOE-2 = type: functional, cell-based;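 also: growth inhibition of human KMOE-2 cells, read out with a cell viability assay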
Description: SANGER: Inhibition of human KMOE-2 cell growth in a cell viability assay.

KS-1 = type: functional, cell-based;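 also: growth inhibition of KS-1 cells, read out with a cell viability assay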
Description: SANGER: Inhibition of human KS-1 cell growth in a cell viability assay.

KURAMOCHI = type: functional, cell-based;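 also: growth inhibition of KURAMOCHI cells, read out with a cell viability assay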
Description: SANGER: Inhibition of human KURAMOCHI cell growth in a cell viability assay.

KY821 = type: functional, cell-based;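 also: growth inhibition of human KY821 cells, read out by a cell viability assay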
Description: SANGER: Inhibition of human KY821 cell growth in a cell viability assay.

LAN-6 = type: functional, cell-based;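 also: growth inhibition of LAN-6 cells, determined with a cell viability assay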
Description: SANGER: Inhibition of human LAN-6 cell growth in a cell viability assay.

LNCaP-Clone-FGC = type: functional, cell-based
Description: SANGER: Inhibition of human LNCaP-Clone-FGC cell growth in a cell viability assay.

LS-1034 = type: functional, cell-based
Description: SANGER: Inhibition of human LS-1034 cell growth in a cell viability assay.

LS-513 = type: functional, cell-based
Description: SANGER: Inhibition of human LS-513 cell growth in a cell viability assay.

LU-134-A = type: functional, cell-based
Description: SANGER: Inhibition of human LU-134-A cell growth in a cell viability assay.

Lu-65 = type: functional, cell-based;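 also: growth inhibition of Lu-65 cancer cells, read out by a cell viability assay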
Description: SANGER: Inhibition of human LU-65 cell growth in a cell viability assay.

LXF-289 cell line = type: functional, cell-based
Description: SANGER: Inhibition of human LXF-289 cell growth in a cell viability assay.

MHH-NB-11 = type: functional, cell-based;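 also: growth inhibition of human MHH-NB-11 cells, read out by a cell viability assay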
Description: SANGER: Inhibition of human MHH-NB-11 cell growth in a cell viability assay.

MHH-PREB-1 = type: functional, cell-based;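 also: cell viability assay measuring inhibition of proliferation of human MHH-PREB-1 cells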
Description: SANGER: Inhibition of human MHH-PREB-1 cell growth in a cell viability assay.

MLMA = type: functional, cell-based;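 also: growth inhibition of MLMA cells (human), determined through a cell viability readout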
Description: SANGER: Inhibition of human MLMA cell growth in a cell viability assay.

MSTO-211H = type: functional, cell-based
Description: SANGER: Inhibition of human MSTO-211H cell growth in a cell viability assay.

Mo = type: functional, cell-based
Description: SANGER: Inhibition of human Mo-T cell growth in a cell viability assay.

NB6 = type: functional, cell-based;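 also: growth inhibition of NB6 cells, read out by a cell viability assay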
Description: SANGER: Inhibition of human NB6 cell growth in a cell viability assay.

NCI-H1155 = type: functional, cell-based;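 also: cell growth inhibition measured by a viability assay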
Description: SANGER: Inhibition of human NCI-H1155 cell growth in a cell viability assay.

NCI-H69 = type: functional, cell-based;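 also: growth inhibition of the cell line, read out with a cell viability assay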
Description: SANGER: Inhibition of human NCI-H69 cell growth in a cell viability assay.

NCI-H747 = type: functional, cell-based;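 also: growth inhibition of human NCI-H747 cells, read out by a cell viability assay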
Description: SANGER: Inhibition of human NCI-H747 cell growth in a cell viability assay.

SNU1 = type: functional, cell-based;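 also: growth inhibition of human NCI-SNU-1 cells, measured with a cell viability assay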
Description: SANGER: Inhibition of human NCI-SNU-1 cell growth in a cell viability assay.

NEC8 = type: functional, cell-based;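 also: growth inhibition of human NEC8 cells, read out by a cell viability assay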
Description: SANGER: Inhibition of human NEC8 cell growth in a cell viability assay.

NOMO-1 = type: functional, cell-based;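 also: growth inhibition of human NOMO-1 cells measured by a cell viability assay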
Description: SANGER: Inhibition of human NOMO-1 cell growth in a cell viability assay.

NOS-1 = type: functional, cell-based;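 also: growth inhibition of the human NOS-1 cell line, read out with a cell viability assay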
Description: SANGER: Inhibition of human NOS-1 cell growth in a cell viability assay.

OMC-1 = type: functional, cell-based;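 also: growth inhibition of the OMC-1 cell line, measured by a cell viability assay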
Description: SANGER: Inhibition of human OMC-1 cell growth in a cell viability assay.

ONS-76 = type: functional, cell-based;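 also: growth inhibition of human ONS-76 cells, read out with a cell viability assay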
Description: SANGER: Inhibition of human ONS-76 cell growth in a cell viability assay.

P30-OHK = type: functional, cell-based;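 also: growth inhibition of the P30-OHK cell line, read out with a cell viability assay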
Description: SANGER: Inhibition of human P30-OHK cell growth in a cell viability assay.

QIMR-WIL = type: functional, cell-based;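 also: growth inhibition of QIMR-WIL cells, read out with a cell viability assay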
Description: SANGER: Inhibition of human QIMR-WIL cell growth in a cell viability assay.

RPMI-8866 = type: functional, cell-based
Description: SANGER: Inhibition of human RPMI-8866 cell growth in a cell viability assay.

Ramos-2G6-4C10 = type: functional, cell-based;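 also: growth inhibition of the cell line, measured by a cell viability read-out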
Description: SANGER: Inhibition of human Ramos-2G6-4C10 cell growth in a cell viability assay.

SF-126 = type: functional, cell-based;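 also: growth inhibition of human SF126 cells, read out with a cell viability assay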
Description: SANGER: Inhibition of human SF126 cell growth in a cell viability assay.

SK-LMS-1 = type: functional, cell-based;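 also: growth inhibition of human SK-LMS-1 cells, read out with a cell viability assay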
Description: SANGER: Inhibition of human SK-LMS-1 cell growth in a cell viability assay.

SK-NEP-1 = type: functional, cell-based;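 also: growth inhibition of human SK-NEP-1 cells, read out by a cell viability assay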
Description: SANGER: Inhibition of human SK-NEP-1 cell growth in a cell viability assay.

SNU-C2B = type: functional, cell-based;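 also: cell viability readout used to measure compound-driven suppression of SNU-C2B cell proliferation, IC50 marking half-maximal growth inhibition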
Description: SANGER: Inhibition of human SNU-C2B cell growth in a cell viability assay.

SW 962 = type: functional, cell-based;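 also: growth inhibition of human SW962 cells, read out by a cell viability assay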
Description: SANGER: Inhibition of human SW962 cell growth in a cell viability assay.

SW982 = type: functional, cell-based;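 also: growth inhibition of SW982 cells, read out with a cell viability assay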
Description: SANGER: Inhibition of human SW982 cell growth in a cell viability assay.

8-MG-BA = type: functional, cell-based;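 also: growth inhibition of 8-MG-BA cells, read out with a cell viability assay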
Description: SANGER: Inhibition of human 8-MG-BA cell growth in a cell viability assay.

A704 = type: functional, cell-based;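 also: growth inhibition of human A704 cells, read out with a cell viability assay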
Description: SANGER: Inhibition of human A704 cell growth in a cell viability assay.

BB30-HNC = type: functional, cell-based;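 also: growth inhibition of the cultured cell line, read out by a cell viability assay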
Description: SANGER: Inhibition of human BB30-HNC cell growth in a cell viability assay.

C8166 = type: functional, cell-based;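 also: growth inhibition of human C8166 cells measured by a cell viability assay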
Description: SANGER: Inhibition of human C8166 cell growth in a cell viability assay.

TE-8 = type: functional, cell-based
Description: SANGER: Inhibition of human TE-8 cell growth in a cell viability assay.

TGBC24TKB = type: functional, cell-based
Description: SANGER: Inhibition of human TGBC24TKB cell growth in a cell viability assay.

TK-10 = type: functional, cell-based
Description: SANGER: Inhibition of human TK10 cell growth in a cell viability assay.

U-87 MG = type: functional, cell-based, U-87MG ATCC
Description: SANGER: Inhibition of human U-87-MG cell growth in a cell viability assay.

CCRF-CEM = type: functional, cell-based
Description: SANGER: Inhibition of human CCRF-CEM cell growth in a cell viability assay.

COLO-668 = type: functional, cell-based
Description: SANGER: Inhibition of human COLO-668 cell growth in a cell viability assay.

Cn1cc(/C=C2\C(=O)Nc3cccnc32)c2ccccc21 showed an IC50 (CW-2) greater than 2000 nM, an IC50 (D-502MG) greater than 2000 nM and an IC50 (DJM-1) greater than 2000 nM. It also gave an IC50 (DOHH-2) greater than 2000 nM, an IC50 (EKVX) greater than 2000 nM and an IC50 (ES5) greater than 2000 nM. For the same compound, the IC50 (EW-1) was greater than 2000 nM, the IC50 (GCIY) was greater than 2000 nM and the IC50 (HC-1) was greater than 2000 nM. The IC50 (HCC2218) was greater than 2000 nM, the IC50 (HCE-T) was greater than 2000 nM and the IC50 (HH) was greater than 2000 nM. For the same compound, the IC50 (HOP-62) was 322 nM, the IC50 (HuTu80) was greater than 2000 nM and the IC50 (IA-LM) was greater than 2000 nM. For the same compound, the IC50 (KARPAS-299) was greater than 2000 nM, the IC50 (KARPAS-45) was greater than 2000 nM and the IC50 (KINGS-1) was greater than 2000 nM. The IC50 (KLE) was greater than 2000 nM, the IC50 (KMOE-2) was greater than 2000 nM and the IC50 (KS-1) was greater than 2000 nM. For the same compound, the IC50 (KURAMOCHI) was greater than 2000 nM, the IC50 (KY821) was greater than 2000 nM and the IC50 (LAN-6) was greater than 2000 nM. For the same compound, the IC50 (LNCaP-Clone-FGC) was greater than 2000 nM, the IC50 (LS-1034) was greater than 2000 nM and the IC50 (LS-513) was greater than 2000 nM. It also gave an IC50 (LU-134-A) greater than 2000 nM, an IC50 (Lu-65) greater than 2000 nM and an IC50 (LXF-289 cell line) greater than 2000 nM. For the same compound, the IC50 (MHH-NB-11) was greater than 2000 nM, the IC50 (MHH-PREB-1) was greater than 2000 nM and the IC50 (MLMA) was greater than 2000 nM. For the same compound, the IC50 (MSTO-211H) was greater than 2000 nM, the IC50 (Mo) was greater than 2000 nM and the IC50 (NB6) was greater than 2000 nM. The IC50 (NCI-H1155) was greater than 2000 nM, the IC50 (NCI-H69) was greater than 2000 nM and the IC50 (NCI-H747) was greater than 2000 nM. For the same compound, the IC50 (SNU1) was greater than 2000 nM, the IC50 (NEC8) was 1230 nM and the IC50 (NOMO-1) was greater than 2000 nM. For the same compound, the IC50 (NOS-1) was greater than 2000 nM, the IC50 (OMC-1) was greater than 2000 nM and the IC50 (ONS-76) was greater than 2000 nM. It also gave an IC50 (P30-OHK) greater than 2000 nM, an IC50 (QIMR-WIL) greater than 2000 nM and an IC50 (RPMI-8866) greater than 2000 nM. The IC50 (Ramos-2G6-4C10) was greater than 2000 nM, the IC50 (SF-126) was greater than 2000 nM and the IC50 (SK-LMS-1) was greater than 2000 nM. For the same compound, the IC50 (SK-NEP-1) was greater than 2000 nM, the IC50 (SNU-C2B) was greater than 2000 nM and the IC50 (SW 962) was greater than 2000 nM. It also gave an IC50 (SW982) greater than 2000 nM, an IC50 (8-MG-BA) greater than 2000 nM and an IC50 (A704) greater than 2000 nM. For the same compound, the IC50 (BB30-HNC) was greater than 2000 nM, the IC50 (C8166) was greater than 2000 nM and the IC50 (TE-8) was greater than 2000 nM. The IC50 (TGBC24TKB) was greater than 2000 nM, the IC50 (TK-10) was greater than 2000 nM and the IC50 (U-87 MG) was greater than 2000 nM. For the same compound, the IC50 (CCRF-CEM) was greater than 2000 nM and the IC50 (COLO-668) was greater than 2000 nM.

C/C=C(/C)C(=O)O[C@H]1C(C)=C2[C@H]([C@@H]1OC(=O)CCCCCCC)[C@@](C)(OC(C)=O)C[C@H](OC(=O)CCC)[C@@]1(O)[C@H]2OC(=O)[C@@]1(C)O [THAPSIGARGIN] was tested, and the IC50 (CW-2) was greater than 512 nM, the IC50 (D-502MG) was 343 nM and the IC50 (DJM-1) was 54.7 nM. The IC50 (DOHH-2) was 22.3 nM, the IC50 (EKVX) was 250 nM and the IC50 (ES5) was greater than 512 nM. For the same compound, the IC50 (EW-1) was 3.88 nM, the IC50 (GCIY) was 53.5 nM and the IC50 (HC-1) was 109 nM. It also gave an IC50 (HCC2218) of 58.9 nM, an IC50 (HCE-T) of 36.3 nM and an IC50 (HH) of 95.9 nM. It also gave an IC50 (HOP-62) of 0.601 nM, an IC50 (HuTu80) of 0.657 nM and an IC50 (IA-LM) of 2.39 nM. For the same compound, the IC50 (KARPAS-299) was 35.6 nM, the IC50 (KARPAS-45) was 8.06 nM and the IC50 (KINGS-1) was 7.59 nM. It also gave an IC50 (KLE) of 70.2 nM, an IC50 (KMOE-2) of 82.9 nM and an IC50 (KS-1) of 3.61 nM. It also gave an IC50 (KURAMOCHI) of 5.44 nM, an IC50 (KY821) of 0.636 nM and an IC50 (LAN-6) greater than 512 nM. It also gave an IC50 (LNCaP-Clone-FGC) of 32.2 nM, an IC50 (LS-1034) of 29 nM and an IC50 (LS-513) of 154 nM. For the same compound, the IC50 (LU-134-A) was 93.3 nM, the IC50 (Lu-65) was 8.49 nM and the IC50 (LXF-289 cell line) was less than 2 nM. For the same compound, the IC50 (MHH-NB-11) was 45.1 nM, the IC50 (MHH-PREB-1) was 12.6 nM and the IC50 (MLMA) was 57.5 nM. It also gave an IC50 (MSTO-211H) of 293 nM, an IC50 (Mo) greater than 512 nM and an IC50 (NB6) of 4.58 nM. The IC50 (NCI-H1155) was 285 nM, the IC50 (NCI-H69) was 56.7 nM and the IC50 (NCI-H747) was 100 nM. The IC50 (SNU1) was 13.6 nM, the IC50 (NEC8) was 11 nM and the IC50 (NOMO-1) was greater than 512 nM. For the same compound, the IC50 (NOS-1) was less than 2 nM, the IC50 (OMC-1) was 83 nM and the IC50 (ONS-76) was 9.98 nM. For the same compound, the IC50 (P30-OHK) was 2.08 nM, the IC50 (QIMR-WIL) was greater than 512 nM and the IC50 (RPMI-8866) was greater than 512 nM. It also gave an IC50 (Ramos-2G6-4C10) of 0.855 nM, an IC50 (SF-126) of 38.3 nM and an IC50 (SK-LMS-1) of less than 2 nM. The IC50 (SK-NEP-1) was 15.9 nM, the IC50 (SNU-C2B) was 12.4 nM and the IC50 (SW 962) was 6.85 nM. For the same compound, the IC50 (SW982) was less than 2 nM, the IC50 (8-MG-BA) was 1.99 nM and the IC50 (A704) was 247 nM. It also gave an IC50 (BB30-HNC) of 0.984 nM, an IC50 (C8166) of 188 nM and an IC50 (TE-8) of 1.37 nM. The IC50 (TGBC24TKB) was less than 2 nM, the IC50 (TK-10) was 22.7 nM and the IC50 (U-87 MG) was 132 nM. It also gave an IC50 (CCRF-CEM) of 30.9 nM and an IC50 (COLO-668) of 19.7 nM.
